Results on 13 compounds are retold here after patent US7012098B2, “Inhibitors of inducible nitric oxide synthase for chemoprevention and treatment of cancers” (Pharmacia Corporation, priority 2001, dated 2006).

One data set relates to Human Cartilage. Description: Human Cartilage Explant Assay (nitrite production). The format is cell-based. As to conditions: inhibition of nitrite production, IL-1β-induced explants. As to the method: Human Cartilage Explant Assay
Bone pieces are rinsed twice with Dulbecco's Phosphate Buffered Saline (GibcoBRL) and once with Dulbecco's Modified Eagles Medium (GibcoBRL) and placed into a petri dish with phenol red free Minimum Essential Medium (MEM) (GibcoBRL). Cartilage was cut into small explants of approximately 15-45 mg in weight and one or two explants per well are placed into either 96 or 48 well culture plates with 200-500 μL of culture media per well. The culture media was either a custom modification of Minimum Essential Medium(Eagle) with Earle's salts (GibcoBRL) prepared without L-Arginine, without L-Glutamine and without phenol red or a custom modification of serumless Neuman and Tytell (GibcoBRL) medium prepared without L-arginine, without insulin, without ascorbic acid, without L-glutamine and without phenol red. Both are supplemented before use with 100 μM L-Arginine (Sigma), 2 mM L-glutamine, 1X HL-1 supplement (BioWihittaker), […] ascorbic acid (Sigma) and 150 pg/ml recombinant human IL-1β (RD Systems) to induce nitric oxide synthase. Compounds are then added in 10 μL aliquots and the explants incubated at 37° C. with 5% CO2 for 18-24 hours. The day old supernatant is then discarded and replaced with fresh culture media containing recombinant human IL-1? and compound and incubated for another 20-24 hours. […] All samples are done in quadruplicate. Unstimulated controls are cultured in media in the absence of recombinant human IL-1β. IC50 values (Table I) are determined from plotting the percent inhibition of nitrite production at six different concentrations of inhibitor.

In data set [1] the test system is LPS-induced increase in plasma nitrite/nitrate levels. The data set is described as follows: In Vivo Assay, endotoxin-treated rats, plasma nitrite/nitrate. As to conditions: administered orally. As to the method:
Plasma nitrite/nitrate levels can be determined 5 hours post-treatment.

In a further data set the test system is AOM-induced colonic ACF. The data set is described as follows: Chemopreventive effects in rats with azoxymethane-induced aberrant crypt foci. The format is in vivo, male F344 rats. The settings on record: for Foci containing 1 Crypt / Foci containing 2 Crypt / Foci containing 3 Crypt / Foci containing ≧4 Crypts / Total ACF incidence: AOM-treated male F344 rats, Mean ± SEM; for inhibition at 320 ppm: feed or water, positive control. An excerpt: In Vivo Assay of Chemopreventive Effects of Therapeutic Compounds in Rats with Azoxymethane-induced Aberrant Crypt Foci
(§1) Azoxymethane (AOM) (CAS:25843-45-2) was purchased from Ash Stevens (Detroit, Mich.). iNOS and COX-2 selective inhibitors were provided by Pharmacia, (St. Louis, […].). Sulindac, a non-selective inhibitor of COX-isoforms and a known inhibitor of colon carcinogenesis, was supplied by the Chemoprevention Branch of the National Cancer Institute (Bethesda, Md.). Weanling male F344 rats were purchased from Charles River Breeding Laboratories (Kingston, N.Y.). All ingredients of the semipurified diet were obtained from Dyets Inc., (Bethlehem, Pa.) and were stored at 4° C. until the experimental diets were prepared. The rats were held in quarantine for 1 week and had access to modified AIN-76A semipurified control diet (Reddy et al., Cancer Res. 50: 2562-2568, 1990, which is herein incorporated by reference.). They were randomly distributed into various dietary groups and were transferred to an animal holding room where they were housed, three rats to a plastic cage, under controlled conditions of a 12-h light/12-h dark cycle, 50% relative humidity and 21° C. room temperature. Experimental diets were prepared by mixing chemopreventive agents with modified AIN-76A control diet.
To quantify aberrant crypt foci, after a minimum of 24 h in buffered formalin, the colons were cut into 2-cm segments starting at the anus; for the next 5-10 min they were placed in a Petri dish containing 0.2% methylene blue in Krebs Ringer solution. They were then placed, mucosal side up, on a microscope slide and observed through a light microscope. Aberrant crypt foci were recorded according to standard procedures that are being used routinely in our laboratory (Rao et al., Carcinogenesis 21: 617-21, 2000; Rao et al., Cancer Res. 53:4182-88, 1993, which are herein incorporated by reference.). […] The parameters used to assess the aberrant crypts were their occurrence and multiplicity. Crypt multiplicity was determined as the number of crypts in each focus and categorized as containing up to 3, or 4 or more aberrant crypts/focus.

Another data set concerns NOS. Description: Colonic mucosal NOS activity after dietary treatment. The settings on record: 500 ppm in diet; AOM-treated rats, colonic mucosa; Mean ± SEM. Type of data set: in vivo, male F344 rats. As to the method: In Vivo Assay of Modulation of Colonic Mucosal Activities of NOS and COX isoforms by iNOS and COX-2 Inhibitors
NOS and iNOS activities were determined in colonic samples as prepared and described above. Conversion of L-arginine to L-citrulline was measured by a modification of an earlier described method (Rao et al, Carcinogenesis 21, supra; Ambs et al., Cancer Res. 58:334-41, 1998, which is herein incorporated by reference). The assay was carried out by adding 100 μg sample protein to 150 μl of assay buffer [50 mM HEPES, 1 mM DTT, 1 mM MgCl2, 5 mg/L pepstatin A, 0.1 mM PMSF, and 3 mg/L aprotinin, pH 7.4] containing 70 μM arginine, 250,000 dpm L-[^3H]-arginine, 2 mM NADPH, 5μM tetrahydro biopterin, 5 μM flavin adenine dinucleotide, and 0.5 mM CaCi2 to measure total NOS activity, or 1 mM EGTA (without calcium) to determine Ca+^2-independent iNOS activity. After 30 min at 37° C., the reaction was stopped with 100 μl of 1M trichloroacetic acid. Then the samples were adjusted to pH 4.6 by adding 500 μl of 20 mM HEPES and loaded on to Dowex AG 50W-X8 resin columns. L-[^3H]-citrulline was eluted and separated on TLC. Radioactivity was counted by a BioScan Radiomatic detector. Results are expressed as pmol L-[^3H]-citrulline released/mg protein/min.

The subject of data set [2] is azoxymethane-induced colonic aberrant crypt foci. The settings on record: cited from earlier work; for formation of colonic aberrant crypt foci: male F344 rats.
A short description of data set [3]: Body weights and toxicity on experimental diets. Type of data set: in vivo, male F344 rats.
From the text: as §1

Where [4] appears, read: Rattus norvegicus, po, read-out: ED50.

Counter-ions that a name gives are not always drawn. Like-named read-outs stand apart in the source and are kept apart here.

`Cl.N=C1CCCC[C@H](CCCC[C@@H](N)C(=O)O)N1.O.O.O` [Example V, (αR,2S)-α-aminohexahydro-7-imino-1H-azepine-2-hexanoic acid, trihydrate hydrochloride] yielded a 50% inhibitory concentration (IC50) in the data set on Human Cartilage (Homo sapiens) below 10 µM. The median effective dose (ED50) in data set [1] (setting [4]) was below 3 mg/kg.

On to `Cc1ccc(-c2cc(C(F)(F)F)nn2-c2ccc(S(N)(=O)=O)cc2)cc1` [Celecoxib, celecoxib], for which, in the data set with AOM-induced colonic ACF (500 ppm in diet), the “Foci containing 1 Crypt” value was 26.8 ± 2.1, the “Foci containing 2 Crypt” value turned out to be 27.3 ± 2.0, the “Foci containing 3 Crypt” value was 23.7 ± 2.3 and the “Foci containing ≧4 Crypts” value was found to be 23.3 ± 2.7. In the data set with AOM-induced colonic ACF (500 ppm in diet), the “Total ACF incidence” value was 102 ± 7.5. In addition, the inhibition at 500 ppm with AOM-induced colonic ACF (Rattus norvegicus, 500 ppm, read-out: inhibition of total ACF) lay within 5 to 20%. Besides, in the data set with NOS, the “NOS Activity, NOS” value was 11.3 ± 2.1 pmoles [^3H]-citrulline/mg pro.

`N=C(N)SCCc1ccc(CCSC(=N)N)cc1` [PBIT]: the “azoxymethane-induced colonic aberrant crypt foci development and iNOS activity” value in data set [2] (laboratory rodents) is recorded as “prevented”.

In the data set with Human Cartilage (Homo sapiens), `N=C1CCCC[C@H](CCCC[C@H](N)C(=O)O)N1` [Example Z, (αS,2S)-α-aminohexahydro-7-imino-1H-azepine-2-hexanoic acid, trihydrate hydrochloride] displayed an IC50 below 10 µM.

The compound `CC(=N)NC/C(F)=C\CC[C@H](N)C(=O)O` [Example A, (2S,5E)-2-amino-6-fluoro-7-[(1-iminoethyl)amino]-5-heptenoic acid, dihydrochloride] had an ED50 in data set [1] (dihydrochloride) below 0.1 mg/kg.

In the case of `CC(=N)NC/C=C\CC[C@](C)(N)C(=O)O.Cl.Cl` [Example LL, (2S,5Z)-2-amino-2-methyl-7-[(1-iminoethyl)amino]-5-heptenoic acid, dihydrochloride], the IC50 with Human Cartilage (Homo sapiens) worked out at 0.8 µM. For the same compound, the 50% effective dose (ED50) in data set [1] (setting [4]) stood at 0.3 mg/kg.

For the compound `CC(=N)NC/C(F)=C\CC[C@](C)(N)C(=O)O.Cl.Cl` [Example HH, (2S,5E)-2-amino-2-methyl-6-fluoro-7-[(1-iminoethyl)amino]-5-heptenoic acid, dihydrochloride], half-maximal inhibition in the data set on Human Cartilage (Homo sapiens) (IC50) required 0.4 µM. Further, in data set [1] (setting [4]), the ED50 turned out to be 0.4 mg/kg.

For the compound `Cl.N=C1CCCC[C@@H](CCCC[C@H](N)C(=O)O)N1.O.O.O` [Example W, (αS,2R)-α-aminohexahydro-7-imino-1H-azepine-2-hexanoic acid, trihydrate hydrochloride], the IC50 in the data set with Human Cartilage (Homo sapiens) was above 30 µM. Further, the ED50 in data set [1] (setting [4]) was above 10 mg/kg.

Consider `CC1=C(CC(=O)O)c2cc(F)ccc2/C1=C\c1ccc([S+](C)[O-])cc1` (stereo not shown) [Sulindac], for which, in the data set on AOM-induced colonic ACF (320 ppm in diet), the “Foci containing 1 Crypt” value came out at 23.3 ± 1.8, the “Foci containing 2 Crypt” value is 28.0 ± 1.5, the “Foci containing 3 Crypt” value turned out to be 17.3 ± 1.7 and the “Foci containing ≧4 Crypts” value worked out at 16.5 ± 0.9. Besides, the “Total ACF incidence” value in the data set with AOM-induced colonic ACF (320 ppm in diet) came to 84.9 ± 4.1. Moreover, the inhibition at 320 ppm with AOM-induced colonic ACF (Rattus norvegicus, 320 ppm in diet, read-out: inhibition of multicrypt clusters containing 4 or more aberrant crypts/focus) was found to be 50%. The inhibition at 320 ppm in the data set with AOM-induced colonic ACF (Rattus norvegicus, 320 ppm in diet, read-out: inhibition of total ACF/colon) turned out to be 40%. The body weights result in data set [3] (rats treated with vehicle or AOM, control vs experimental diets, throughout the study period) is “comparable”. Moreover, the “toxicity or gross changes in the liver, kidney, intestine and lungs” value in data set [3] (vehicle-treated rats fed the experimental diets) was “did not produce any toxicity or any gross changes”.

With `COC[C@](N)(CSCCNC(C)=N)C(=O)O` [Example J, 2-[[[2-[(1-Iminoethyl)amino]ethyl]thio]methyl]-O-methyl-D-serine, dihydrochloride], inhibition in the data set on Human Cartilage was half-maximal at 8.2 µM (IC50).

Consider `CS(=O)(=O)Nc1ccc([N+](=O)[O-])cc1Oc1ccccc1` [nemisulide], for which, in data set [2], the “formation of colonic aberrant crypt foci” value was “inhibit”.

As for `N=C1CCCC[C@H](CCCC[C@H](N)C(=O)O)N1` [Example X, (αS,2S)-α-aminohexahydro-7-imino-1H-azepine-2-hexanoic acid, trihydrate hydrochloride], the IC50 with Human Cartilage was below 10 µM.

Consider `COc1ccc2cc(CCC(C)=O)ccc2c1` [nabumetone], for which the “formation of colonic aberrant crypt foci” value in data set [2] was “inhibit”.
